Our source for the antihypertensive activity values is patent publication US4215110A, “Method of treating hypertension” (Merck & Co., Inc., priority 1978, dated 1980).

This experiment relates to spontaneously hypertensive (SH) rats. The experiment in a line: antihypertensive activity test in spontaneously hypertensive (SH) rats. In kind it is in vivo, rat. The note with it: administered intraperitoneally. On the procedure:
The present tripeptides have antihypertensive activity. This antihypertensive activity was determined using a test procedure which involved administration of representative compounds to spontaneously hypertensive (SH) rats.

In the case of `NC(=O)[C@@H]1CCCN1C(=O)[C@H](Cc1c[nH]cn1)NC(=O)[C@@H]1CCC(=O)N1` [TRH, L-pyroglutamyl-L-histidyl-L-proline-amide], the antihypertensive activity result is recorded as “significant antihypertensive activity”.
